We go through three molecules from BigSolDB 2.1.

In general, solubility (mole fraction) refers to solubility expressed as the solute's share of all molecules. For `O=[N+]([O-])c1ccc(NS(=O)(=O)c2ccccc2)cc1`, the solubility (mole fraction) is 0.00958 (in n-octanol, 293.15 K); 0.0116 (in n-octanol, 298.15 K); 0.0139 (in n-octanol, 303.15 K); 0.018 (in n-octanol, 310.15 K); 0.0222 (in n-octanol, 315.15 K); 1.45e-06 (in water, 293.15 K). Moreover, the solubility (mole fraction) reads like this: (in water, 298.15 K) 1.85e-06; (in water, 303.15 K) 2.32e-06; (in water, 310.15 K) 3.19e-06; (in water, 315.15 K) 3.71e-06.

As to `N#Cc1ccc(NS(=O)(=O)c2ccc(N)cc2)cc1`, the solubility (mole fraction) was 0.00112 (in n-octanol, 293.15 K); 0.00129 (in n-octanol, 298.15 K); 0.00158 (in n-octanol, 303.15 K); 0.00197 (in n-octanol, 310.15 K); 0.00234 (in n-octanol, 315.15 K); 4.11e-06 (in water, 293.15 K). For the same molecule, the solubility (mole fraction) turned out to be 5.47e-06 (in water, 298.15 K); 7.58e-06 (in water, 303.15 K); 1.16e-05 (in water, 310.15 K); 1.45e-05 (in water, 315.15 K).

For the molecule `Nc1ccc(S(=O)(=O)Nc2ccc([N+](=O)[O-])cc2)cc1`, the solubility (mole fraction) by setting is: (in n-octanol, 293.15 K) 0.0026; (in n-octanol, 298.15 K) 0.003; (in n-octanol, 303.15 K) 0.00361; (in n-octanol, 310.15 K) 0.00465; (in n-octanol, 315.15 K) 0.00562; (in water, 293.15 K) 2.72e-06. Further, the solubility (mole fraction) by setting is: (in water, 298.15 K) 3.64e-06; (in water, 303.15 K) 4.88e-06; (in water, 310.15 K) 7.63e-06; (in water, 315.15 K) 8.29e-06.
